Counter-ions that a name gives are not always drawn.
Columns and labels:
P2X7 receptor = biological target: T1, P2X7 receptor (Homo sapiens, UniProt Q99572); experiment: bbATP-induced ethidium bromide fluorescence in THP-1 cells, P2X7 receptor antagonist activity; format: cell-based; details: negative logarithm of concentration reducing bbATP agonist activity by 50%, 10^-5M bbATP, 37° C. one hour
T1 construct: 200 μl of a suspension of THP-1 cells; endogenous in cells; host or cells: THP-1 cells
T1 sequence (Q99572 1-595): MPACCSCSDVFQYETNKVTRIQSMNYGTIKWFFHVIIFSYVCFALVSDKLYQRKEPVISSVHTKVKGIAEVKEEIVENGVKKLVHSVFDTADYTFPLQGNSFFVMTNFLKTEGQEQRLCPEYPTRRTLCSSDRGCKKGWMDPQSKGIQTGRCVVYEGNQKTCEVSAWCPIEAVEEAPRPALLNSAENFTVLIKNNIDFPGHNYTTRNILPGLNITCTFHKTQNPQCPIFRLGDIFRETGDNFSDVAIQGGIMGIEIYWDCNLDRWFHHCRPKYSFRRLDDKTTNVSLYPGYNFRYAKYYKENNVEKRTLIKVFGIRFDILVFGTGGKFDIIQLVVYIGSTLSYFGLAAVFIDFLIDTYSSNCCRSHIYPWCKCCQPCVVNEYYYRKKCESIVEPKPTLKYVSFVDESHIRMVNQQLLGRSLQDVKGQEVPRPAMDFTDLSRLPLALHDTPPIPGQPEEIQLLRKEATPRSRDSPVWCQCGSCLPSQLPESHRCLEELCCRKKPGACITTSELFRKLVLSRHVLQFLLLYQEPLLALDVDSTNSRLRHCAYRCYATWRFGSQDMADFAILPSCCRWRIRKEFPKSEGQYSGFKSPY
Excerpt: Certain compounds such as benzoylbenzoyl adenosine triphosphate (bbATP) are known to be agonists of the P2X7 receptor, effecting the formation of pores in the plasma membrane (Drug Development Research (1996), 37(3), p. 126). Consequently, when the receptor is activated using bbATP in the presence of ethidium bromide (a fluorescent DNA probe), an increase in the fluorescence of intracellular DNA-bound ethidium bromide is observed. The increase in fluorescence can be used as a measure of P2X7 receptor activation and therefore to quantify the effect of a compound on the P2X7 receptor.
In this manner, each of the title compounds of the Examples was tested for antagonist activity at the P2X7 receptor. Thus, the test was performed in 96-well flat bottomed microtitre plates, the wells being filled with 250 μl of test solution comprising 200 μl of a suspension of THP-1 cells (2.5×10^6 cells/ml) containing 10^−4M ethidium bromide, 25 μl of a high potassium buffer solution containing 10^−5M bbATP, and 25 μl of the high potassium buffer solution containing 3×10^−5M test compound. The plate was covered with a plastics sheet and incubated at 37° C. for one hour. The plate was then read in a Perkin-Elmer fluorescent plate reader, excitation 520 nm, emission 595 nm, slit widths: Ex 15 nm, Em 20 nm. For the purposes of comparison, bbATP (a P2X7 receptor agonist) and pyridoxal 5-phosphate (a P2X7 receptor antagonist) were used separately in the test as controls.

| SMILES | IC50 (P2X7 receptor) | melting point |
| --- | --- | --- |
| O=C(CCc1ccccc1Cl)Nc1c(Cl)ccc2nc(N3CCC(C(=O)O)CC3)ccc12 [Example 20, 1-[6-Chloro-5-[[3-(2-chlorophenyl)-1-oxopropyl]amino]-2-quinolinyl]-4-piperidinecarboxylic acid, potassium salt] | 794 nM |  |
| CNCCCN(C)c1ccc2c(NC(=O)C[C@@H](C)c3ccccc3)c(Cl)ccc2n1 [Example 3, (βR)-N-[6-Chloro-2-[methyl[3-(methylamino)propyl]amino]-5-quinolinyl]-β-methyl-benzenepropanamide, ditrifluoroacetate] | 31.6 nM |  |
| Cc1ccc2c(C(=O)NC[C@H](C)c3ccccc3)c(Cl)ccc2n1 [Example 1, 6-Chloro-2-methyl-N-[(2R)-2-phenylpropyl]-5-quinolinecarboxamide, hydrochloride] | 316 nM |  |
| Cc1ccc2c(C(=O)NCCc3ccccc3)c(Cl)ccc2n1 [Example 5, 6-Chloro-2-methyl-N-(2-phenylethyl)-5-quinolinecarboxamide] |  | 170 to 172 °C |
| O=C(CCc1ccccc1Cl)Nc1c(Cl)ccc2nc(N3CCNCC3)ccc12 (as salt: hydrochloride) [Example 10, 2-Chloro-N-[6-chloro-2-(1-piperazinyl)-5-quinolinyl]-benzenepropanamide, dihydrochloride] |  | 265 to 270 °C |
